Laboratory results: patent US20190136188A1, “4HPR AND ITS USE IN THE CULTURING OF HEMATOPOIETIC STEM CELLS” (UNIVERSITY HEALTH NETWORK, priority 2016, published 2019)
Entries after “also recorded” stand apart in the source; their conditions may differ.

Columns and labels:
sorted HSC, MPP or GMP = test: Colony forming assay (CFC) in methylcellulose; type: cell-based, human; settings: for cloning efficiency of the HSC / relative number of colonies relative to vehicle control: 35 nM UM171 or 0.5 uM SR1, 10 days
Protocol: (A) Dose response of varying [4HPR] in CB at day 3 post-treatment showing 2 uM 4HPR gives the relative half maximal number of viable cells compared to control. All experiments following are at this 4HPR concentration unless otherwise indicated. […] (C) LC/MS was used to profile the ceramide (Cer), dihydroceramide (dhCer), sphingosine (sph), dihydrosphingosine (dhSph), S1P and dihydro-S1P (dhS1P) levels in lin− CB cells cultured for 8 days with control or 4HPR (n=2). […] (D) HSC, MPP, or GMP were sorted into methylcellulose for CFC assays in the presence of control or 4HPR and colonies were blindly scored following 10-11 days for (D) colonies/100 cells and ((E) colony distribution are shown (n=7). (F) Flow cytometry for erythroid (GlyA+) and monocytic (CD14+) markers in live cells from pooled CFC colonies were scored (n=6). (F) Relative number of colonies from CFC assays comparing the effect of 4HPR or ATRA (n=3) on sorted HSC, MPP or GMP. […]
(A) Representative flow cytometry analysis of the primitive hierarchy within the CD34+ fraction of day 8 cultured lin− CB cells after the indicated treatments for CD90 and CD45RA, n=4. B) The distribution of cultured CD34+CD90+CD45RA− (cHSC), CD34+CD90−CD45RA− (cMPP), and […] for the indicated conditions at day 8 of ex vivo culture following CD34 enrichment. Statistical significance assayed through unpaired t-test relative to vehicle control (Ctrl). The relative number of colonies resulting from (C) HSC or (D) MPP grown in methylcellulose CFC assays in the presence of vehicle control (−) or the indicated combination of 2 uM 4HPR, or 35 nM UM171 or 0.5 uM SR1 at 10 days. Statistical significance is calculated via unpaired t-test relative to ctrl (black) or to the presence of absence of 4HPR treatment for UM171 or SR1.
However, the functional consequence of 4HPR treatment on human cord blood primitive cells is unknown. A dose titration of 4HPR was performed on lineage-depleted CB (lin-CB) cells and 2 uM was calculated to give half maximal cell viability at 3 days post-treatment compared to vehicle control (ctrl), a concentration reported in cell lines to antagonize DEGS1 enzymatic function, and used for all subsequent experiments unless otherwise indicated (FIG. 1A). […] Next, we utilized the colony forming assay (CFC) for in vitro progenitor function to determine if 4HPR treatment alters functional output from isolated populations of CB HSPC. […] This is unsurprising as retinoic acid signaling is a potent differentiation signal in hematopoietic cells. Thus, 4HPR inhibition of sphingolipid homeostasis selectively enhances cloning efficiency in human HSC.
Given the CD34 compartment where functional HSC should reside following ex vivo expansion is critical to blood production, we asked if there were immunophenotypic alterations following 4HPR treatment. StemRegenin-1 (SR1) or UM171 are two molecules whose action on CB has been reported to expand CD34+ cells dramatically and lead to increase reconstitution in xenotransplantation (Fares, et al Science, 2014: Boitano, Science, 2010). We sought to ask if limiting CD34+ expansion with 4HPR treatment is synergistic with these known agonists of CB ex vivo expansion. Lin− CB were cultured with these 3 small molecules alone or in combination for 8 days and the CD34 compartment was isolated and analyzed by flow cytometry further with CD90 and CD45RA to look at immunophenotypic cultured HSC (cHSC), MPP (cMPP) and committed progenitors (cProg). These populations were sorted from lin-CB at […] following expansion and transplanted into NSG mice for 16 weeks to ascertain that cProg cells are committed progenitors, while cHSC and cMPP retain multipotency following culture (FIG. 8A, B). […]

sorted HSC and MPP = test: 8 day ex vivo expansion of sorted HSC and MPP, CD34+ compartment by flow cytometry; type: cell-based, human; settings: D8 after ex vivo expansion
Description: B) Lymphoid and C) myeloid engraftment from (A) at 16 weeks post-transplantion. […] F) Flow cytometry plots showing the CD34+ population from 8 day cultured HSC.
Given the CD34 compartment where functional HSC should reside following ex vivo expansion is critical to blood production, we asked if there were immunophenotypic alterations following 4HPR treatment. StemRegenin-1 (SR1) or UM171 are two molecules whose action on CB has been reported to expand CD34+ cells dramatically and lead to increase reconstitution in xenotransplantation (Fares, et al Science, 2014: Boitano, Science, 2010). We sought to ask if limiting CD34+ expansion with 4HPR treatment is synergistic with these known agonists of CB ex vivo expansion. Lin− CB were cultured with these 3 small molecules alone or in combination for 8 days and the CD34 compartment was isolated and analyzed by flow cytometry further with CD90 and CD45RA to look at immunophenotypic cultured HSC (cHSC), MPP (cMPP) and committed progenitors (cProg). […] To further elucidate the specific action of 4HPR on HSC over MPP and compare this to UM171 and SR1, sorted HSC and MPP were put into ex vivo expansion conditions for 8 days with the same treatments as in FIG. 7A, B and their growth and CD34+ compartment were monitored by flow cytometry (FIG. 8D-F). […]

Row | Compound | colony output (sorted HSC, MPP or GMP; ATRA treatment, HSC, MPP, GMP) | cloning efficiency of the HSC (sorted HSC, MPP or GMP) | relative number of colonies relative to vehicle control (sorted HSC, MPP or GMP) | primitive CD34+ cells from sorted HSC and MPP (sorted HSC and MPP)
1 | CC1=C(/C=C/C(C)=C/C=C/C(C)=C/C(=O)O)C(C)(C)CCC1 [ATRA, all-trans retinoic acid] | decreases colony output from all HSPC populations |  |  | 
2 | CC(C)n1cnc2c(NCCc3ccc(O)cc3)nc(-c3csc4ccccc34)nc21 [SR1, StemRegenin-1] |  | both decreased cloning efficiency of the HSC | Neither UM171 nor SR1 altered relative number of colonies | promote CD34+ expansion more from MPP than HSC; also recorded: occurs primarily in sorted MPP, not HSC
3 | Cn1nnc(-c2ccc3c(c2)[nH]c2nc(Cc4ccccc4)nc(N[C@H]4CC[C@H](N)CC4)c23)n1 [UM171, (1r,4r)-N1-(2-benzyl-7-(2-methyl-2H-tetrazol-5-yl)-9H-pyrimido[4,5-b]indol-4-yl)cyclohexane-1,4-diamine] |  | both decreased cloning efficiency of the HSC | Neither UM171 nor SR1 altered relative number of colonies | promote CD34+ expansion more from MPP than HSC; also recorded: dramatically increases primitive CD34+ from both HSC and MPP
